# From EPA's ToxValDB 9.5 (doi:10.2903/j.efsa.2008.177r)
# How the values were obtained:
# Colinus virginianus = conditions: for LD50: acute, oral, mortality; for NOEL: reproduction developmental
# Rattus norvegicus = conditions: for LD50: mortality
# Apis mellifera = conditions: acute; duration: 48 hours; dermal; mortality
# Bibionidae = conditions: chronic/long-term; duration: 28 days
# Daphnia magna = conditions: chronic/long-term; duration: 21 days; reproduction
# Leuciscus idus = conditions: acute; duration: 96 hours; mortality
# Oncorhynchus mykiss = conditions: chronic/long-term; duration: 28 days; growth
# Plant = conditions: not reported; seedling emergence
# Aphidius rhopalosiphi = experiment: LR50; higher = less toxic; conditions: acute; duration: 48 hours; mortality
# Typhlodromus pyri = experiment: LR50; higher = less toxic; conditions: acute; duration: 14 days; mortality
compound,measurement,setting,value
"NC(Cc1ncn[nH]1)C(=O)O (centres undefined) [1,2,4-Triazole-3-alanine]",LD50,Colinus virginianus; diet,1310 mg/kg-day
same,LD50,Colinus virginianus,> 5000 mg/kg-day
same,LD50,"Rattus norvegicus; acute, oral",> 5000 mg/kg-day
"c1nc[nH]n1 [1H-1,2,4-Triazole]",LD50,"Rattus norvegicus; acute, oral",1650 mg/kg-day
CC(C)(C)C(=O)C(Oc1ccc(Cl)cc1)n1cncn1 (centres undefined) [Triadimefon],NOEL,Colinus virginianus,43.5 mg/kg-day
CC(C)(C)C(O)C(Oc1ccc(Cl)cc1)n1cncn1 (centres undefined) [Triadimenol],LD50,Apis mellifera,> 200 µg/piece
same,NOEC,Bibionidae,0.1 mg/L
same,LD50,Colinus virginianus; diet,> 705 mg/kg-day
same,LD50,Colinus virginianus,> 2000 mg/kg-day
same,NOEL,Colinus virginianus,7.5 mg/kg-day
same,NOEC,Daphnia magna,0.1 mg/L
same,LC50,Leuciscus idus,17.4 µg/mL
same,NOEC,Oncorhynchus mykiss,3.13 mg/L
same,LEL,Plant,125 g/ha
same,LD50,"Rattus norvegicus; acute, oral, M",689 mg/kg-day
same,NOAEL,"Rattus norvegicus; acute, oral, clinical signs",2 mg/kg-day
same,NOAEL,"Rattus norvegicus; chronic, duration: 2 years, organ weight",5 mg/kg-day
same,NOEL,"Rattus norvegicus; reproduction developmental, M, growth",8.88 mg/kg-day
same,NOAEL,"Rattus norvegicus; reproduction developmental, body weight",6 mg/kg-day
same,NOAEL,"Rattus norvegicus; subchronic, clinical signs",3.4 mg/kg-day
same,LC50,"Tagia sp.; acute, mortality",781 mg/kg
same,NOEC,Tagia sp.; chronic/long-term,100 mg/kg
same,LR50,Aphidius rhopalosiphi,> 1250 g/ha
same,LR50,Typhlodromus pyri,> 1250 g/ha
